From US20100137313A1 (ASTRAZENECA AB, priority 2008, published 2010)

Molecular target: S. pneumoniae Topoisomerase IV ATPase (ParE) (Streptococcus pneumoniae serotype 4, UniProt Q59961)
Assay: S. pneumoniae Topoisomerase IV ATPase inhibition
Format: biochemical
Settings: values marked * are an average of two or more data points; for inhibition at 13 µM: read-out: % Inh (13 μM) of S. pneumoniae Topoisomerase IV ATPase
Outline: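 Phosphate-release ATPase assay: 1.25 nM ParE, 160 μM ATP, DNA-stimulated. Quench with malachite green/molybdate in 1 M HCl, read 650 nm; IC50 from 10-point dose series.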

Chain of S. pneumoniae Topoisomerase IV ATPase (ParE) (Q59961 whole entry): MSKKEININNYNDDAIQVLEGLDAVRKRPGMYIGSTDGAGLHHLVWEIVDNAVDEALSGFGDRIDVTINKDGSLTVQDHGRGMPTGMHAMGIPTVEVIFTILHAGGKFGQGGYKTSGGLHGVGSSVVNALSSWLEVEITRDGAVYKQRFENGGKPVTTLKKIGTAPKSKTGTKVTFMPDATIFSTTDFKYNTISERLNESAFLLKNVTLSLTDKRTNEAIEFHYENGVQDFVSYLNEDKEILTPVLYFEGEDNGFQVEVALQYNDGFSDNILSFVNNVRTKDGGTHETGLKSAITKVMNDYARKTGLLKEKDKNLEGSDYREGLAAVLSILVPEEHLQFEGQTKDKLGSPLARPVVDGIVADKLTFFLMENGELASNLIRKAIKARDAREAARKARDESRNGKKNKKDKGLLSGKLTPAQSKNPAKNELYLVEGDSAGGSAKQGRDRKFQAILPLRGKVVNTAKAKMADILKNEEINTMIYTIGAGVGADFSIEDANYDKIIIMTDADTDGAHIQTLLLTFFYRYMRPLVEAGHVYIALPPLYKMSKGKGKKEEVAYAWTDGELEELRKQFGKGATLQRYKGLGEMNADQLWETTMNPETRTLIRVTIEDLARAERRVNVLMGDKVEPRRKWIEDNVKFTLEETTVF

| SMILES | inhibition at 13 µM [%] | % Inh (13 μM) of S. pneumoniae Topoisomerase IV ATPase (13 µM) [%] |
| --- | --- | --- |
| COc1nc(OC)c(-c2cnc(Nc3ccc(F)c(Cl)c3)nc2-n2nc(C(F)(F)F)cc2C)cc1C(=O)O [Example 1131, 5-(2-(3-chloro-4-fluorophenylamino)-4-(5-methyl-3-(trifluoromethyl)-1H-pyrazol-1-yl)pyrimidin-5-yl)-2,6-dimethoxynicotinic acid] | 100 |  |
| COc1nc(OC)c(-c2cnc(Nc3ccc(F)c(Cl)c3)nc2-n2ccc(C(F)(F)F)n2)cc1C(=O)O [Example 1132, 5-(2-(3-chloro-4-fluorophenylamino)-4-(3-(trifluoromethyl)-1H-pyrazol-1-yl)pyrimidin-5-yl)-2,6-dimethoxynicotinic acid] | 100 |  |
| COCCOc1ncc(-c2cnc(Nc3ccc(F)c(Cl)c3)nc2-n2ccc(C(F)(F)F)n2)cc1C(=O)O [Example 1133, 5-(2-(3-chloro-4-fluorophenylamino)-4-(3-(trifluoromethyl)-1H-pyrazol-1-yl)pyrimidin-5-yl)-2-(2-methoxyethoxy)nicotinic acid] | 100 |  |
| Cc1cc(C(F)(F)F)nn1-c1nc(Nc2ccc(F)c(Cl)c2)ncc1-c1cnc(OCCO)c(C(=O)O)c1 [Example 1134, 5-(2-(3-chloro-4-fluorophenylamino)-4-(5-methyl-3-(trifluoromethyl)-1H-pyrazol-1-yl)pyrimidin-5-yl)-2-(2-hydroxyethoxy)nicotinic acid] | 100 |  |
| O=C(O)c1cc(-c2cnc(Nc3ccc(F)c(Cl)c3)nc2-n2ccc(C(F)(F)F)n2)cnc1OCC(F)(F)F [Example 1135, 5-(2-(3-chloro-4-fluorophenylamino)-4-(3-(trifluoromethyl)-1H-pyrazol-1-yl)pyrimidin-5-yl)-2-(2,2,2-trifluoroethoxy)nicotinic acid] | 100 |  |
| COc1cc(Nc2ncc(-c3cnc(OCCN4CCOCC4)c(C(=O)O)c3)c(-n3nc(C(F)(F)F)cc3C)n2)cc(OC)c1 [Example 1136, 5-(2-(3,5-dimethoxyphenylamino)-4-(5-methyl-3-(trifluoromethyl)-1H-pyrazol-1-yl)pyrimidin-5-yl)-2-(2-morpholinoethoxy)nicotinic acid] | 99 |  |
| O=C(O)Cn1nccc1-c1cnc(Nc2ccc(F)c(Cl)c2)nc1-n1ccc(C(F)(F)F)n1 [Example 1137, 2-(5-(2-(3-chloro-4-fluorophenylamino)-4-(3-(trifluoromethyl)-1H-pyrazol-1-yl)pyrimidin-5-yl)-1H-pyrazol-1-yl)acetic acid] | 100 |  |
| COc1ccc(C(=O)O)cc1-c1cnc(Nc2ccc(F)c(Cl)c2)nc1-n1ccc(C(F)(F)F)n1 [Example 1138, 3-(2-(3-chloro-4-fluorophenylamino)-4-(3-(trifluoromethyl)-1H-pyrazol-1-yl)pyrimidin-5-yl)-4-methoxybenzoic acid] |  | 94 |
| COc1c(C(=O)O)cccc1-c1cnc(Nc2ccc(F)c(Cl)c2)nc1-n1ccc(C(F)(F)F)n1 [Example 1139, 3-(2-(3-chloro-4-fluorophenylamino)-4-(3-(trifluoromethyl)-1H-pyrazol-1-yl)pyrimidin-5-yl)-2-methoxybenzoic acid] | 96 |  |
| O=C(O)c1cc(-c2cnc(Nc3ccc(F)c(Cl)c3)nc2-n2ccc(C(F)(F)F)n2)cnc1OCCN1CCOCC1 [Example 1140, 5-(2-(3-chloro-4-fluorophenylamino)-4-(3-(trifluoromethyl)-1H-pyrazol-1-yl)pyrimidin-5-yl)-2-(2-morpholinoethoxy)nicotinic acid] | 100 |  |
| Cc1cc(C(F)(F)F)nn1-c1nc(Nc2ccc(F)c(Cl)c2)ncc1-c1cnc(OCCN2CCOCC2)c(C(=O)O)c1 [Example 1141, 5-(2-(3-chloro-4-fluorophenylamino)-4-(5-methyl-3-(trifluoromethyl)-1H-pyrazol-1-yl)pyrimidin-5-yl)-2-(2-morpholinoethoxy)nicotinic acid] | 100 |  |
| COc1ncc(C(=O)O)cc1-c1cnc(Nc2cc(C)cc(C)c2)nc1-n1nc(C(F)(F)F)cc1C [Example 1142, 5-(2-(3,5-dimethylphenylamino)-4-(5-methyl-3-(trifluoromethyl)-1H-pyrazol-1-yl)pyrimidin-5-yl)-6-methoxynicotinic acid] | 100 |  |
| COc1cc(Nc2ncc(-c3cnc(OC)c(C(=O)O)c3)c(-n3ccc(C4CC4)n3)n2)cc(OC)c1 [Example 1143, 5-(4-(3-cyclopropyl-1H-pyrazol-1-yl)-2-(3,5-dimethoxyphenylamino)pyrimidin-5-yl)-2-methoxynicotinic acid] | 100 |  |
| COc1cc(Nc2ncc(-c3cnc(OC)c(C(=O)O)c3)c(-n3nc(C(F)(F)F)nc3C)n2)cc(OC)c1 [Example 1144, 5-(2-(3,5-dimethoxyphenylamino)-4-(5-methyl-3-(trifluoromethyl)-1H-1,2,4-triazol-1-yl)pyrimidin-5-yl)-2-methoxynicotinic acid] | 100 |  |
| Cc1cc(C)cc(Nc2ncc(-c3cc(C(=O)O)cnc3OCCN(C)C)c(-n3nc(C(F)(F)F)cc3C)n2)c1 [Example 1145, 6-(2-(dimethylamino)ethoxy)-5-(2-(3,5-dimethylphenylamino)-4-(5-methyl-3-(trifluoromethyl)-1H-pyrazol-1-yl)pyrimidin-5-yl)nicotinic acid] | 100 |  |
| O=C(NCCO)c1cccc(-c2cnc(Nc3ccc(F)c(Cl)c3)nc2-n2ccc(C(F)(F)F)n2)c1 [Example 1146, 3-(2-(3-chloro-4-fluorophenylamino)-4-(3-(trifluoromethyl)-1H-pyrazol-1-yl)pyrimidin-5-yl)-N-(2-hydroxyethyl)benzamide] | 100 |  |
| NC(=O)c1cccc(-c2cnc(Nc3ccc(F)c(Cl)c3)nc2-n2ccc(C(F)(F)F)n2)c1 [Example 1147, 3-(2-(3-chloro-4-fluorophenylamino)-4-(3-(trifluoromethyl)-1H-pyrazol-1-yl)pyrimidin-5-yl)benzamide] | 100 |  |
| CN(C)C(=O)c1cccc(-c2cnc(Nc3ccc(F)c(Cl)c3)nc2-n2ccc(C(F)(F)F)n2)c1 [Example 1148, 3-(2-(3-chloro-4-fluorophenylamino)-4-(3-(trifluoromethyl)-1H-pyrazol-1-yl)pyrimidin-5-yl)-N,N-dimethylbenzamide] | 24 |  |
| CON(C)C(=O)c1cccc(-c2cnc(Nc3ccc(F)c(Cl)c3)nc2-n2ccc(C(F)(F)F)n2)c1 [Example 1149, 3-(2-(3-chloro-4-fluorophenylamino)-4-(3-(trifluoromethyl)-1H-pyrazol-1-yl)pyrimidin-5-yl)-N-methoxy-N-methylbenzamide] | 100 |  |
| CC(=O)Nc1cc(C(=O)O)cc(-c2cnc(Nc3ccc(F)c(Cl)c3)nc2-n2ccc(C(F)(F)F)n2)c1 [Example 1150, 3-acetamido-5-(2-(3-chloro-4-fluorophenylamino)-4-(3-(trifluoromethyl)-1H-pyrazol-1-yl)pyrimidin-5-yl)benzoic acid] | 100 |  |
| O=C(c1cccc(-c2cnc(Nc3ccc(F)c(Cl)c3)nc2-n2ccc(C(F)(F)F)n2)c1)N1CCOCC1 [Example 1151, (3-(2-(3-chloro-4-fluorophenylamino)-4-(3-(trifluoromethyl)-1H-pyrazol-1-yl)pyrimidin-5-yl)phenyl)(morpholino)methanone] | 100 |  |
| COc1cc(Nc2ncc(-c3cnc(OC)c(C(=O)NS(C)(=O)=O)c3)c(-n3ccc(C4CC4)n3)n2)cc(OC)c1 [Example 1152, 5-(4-(3-cyclopropyl-1H-pyrazol-1-yl)-2-(3,5-dimethoxyphenylamino)pyrimidin-5-yl)-2-methoxy-N-(methylsulfonyl)nicotinamide] | 100 |  |
| COc1cc(Nc2ncc(-c3cnc(OC)c(C(=O)NS(C)(=O)=O)c3)c(-n3nc(C(F)(F)F)nc3C)n2)cc(OC)c1 [Example 1153, 5-(2-(3,5-dimethoxyphenylamino)-4-(5-methyl-3-(trifluoromethyl)-1H-1,2,4-triazol-1-yl)pyrimidin-5-yl)-2-methoxy-N-(methylsulfonyl)nicotinamide] | 100 |  |
| O=C(O)/C=C/c1cncc(-c2cnc(Nc3ccc(F)c(Cl)c3)nc2-n2ccc(C(F)(F)F)n2)c1 [Example 1156, (E)-3-(5-(2-(3-chloro-4-fluorophenylamino)-4-(3-(trifluoromethyl)-1H-pyrazol-1-yl)pyrimidin-5-yl)pyridin-3-yl)acrylic acid] | 88 |  |
| COCCn1cc(-c2cnc(Nc3cc(OC)cc(OC)c3)nc2-n2ccc(C(F)(F)F)n2)cc(C(=O)O)c1=O [Example 1159] | 100 |  |
| COCCn1cc(-c2cnc(Nc3cc(OC)cc(OC)c3)nc2-n2nc(C(F)(F)F)cc2C)cc(C(=O)O)c1=O [Example 1160, 5-(2-(3,5-dimethoxyphenylamino)-4-(5-methyl-3-(trifluoromethyl)-1H-pyrazol-1-yl)pyrimidin-5-yl)-1-(2-methoxyethyl)-2-oxo-1,2-dihydropyridine-3-carboxylic acid] | 100 |  |
| COCCn1cc(-c2cnc(Nc3cc(OC)cc(OC)c3)nc2-n2nc(C(F)(F)F)cc2C)cc(C(=O)NS(C)(=O)=O)c1=O [Example 1161, 5-(2-(3,5-dimethoxyphenylamino)-4-(5-methyl-3-(trifluoromethyl)-1H-pyrazol-1-yl)pyrimidin-5-yl)-1-(2-methoxyethyl)-N-(methylsulfonyl)-2-oxo-1,2-dihydropyridine-3-carboxamide] | 81 |  |
| CCS(=O)(=O)NC(=O)c1cc(-c2cnc(Nc3cc(OC)cc(OC)c3)nc2-n2nc(C(F)(F)F)cc2C)cn(CCOC)c1=O [Example 1162, 5-(2-(3,5-dimethoxyphenylamino)-4-(5-methyl-3-(trifluoromethyl)-1H-pyrazol-1-yl)pyrimidin-5-yl)-N-(ethylsulfonyl)-1-(2-methoxyethyl)-2-oxo-1,2-dihydropyridiine-3-carboxamide] | 100 |  |
